Assay results taken from US20230102554A1 (GB002, INC., priority 2019, published 2023).

Experiments:
[1] = target: T1, Human PDGFRα, cytoplasmic domain (GST-PDGFRα) (Homo sapiens, UniProt P16234); test: Human PDGFRα biochemical inhibition assay (off-chip Mobility Shift Assay)
T1 construct: made in house

[2] = target: T2, Human PDGFRβ, cytoplasmic domain (GST-PDGFRβ) (Homo sapiens, UniProt P09619); test: Human PDGFRβ biochemical inhibition assay (off-chip Mobility Shift Assay)
T2 construct: made in house
Procedure, shortened: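 GST-tagged cytoplasmic domain (aa 557-1106) from baculovirus was incubated 1 h at room temperature with compound, CSKtide, ATP at Km and Mg²⁺ in HEPES buffer, pH 7.5. Phosphorylated and unphosphorylated peptide were separated by off-chip mobility shift, and the product ratio P/(P+S) gave percent inhibition.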

T2 sequence (P09619 with tags, fused parts or gaps): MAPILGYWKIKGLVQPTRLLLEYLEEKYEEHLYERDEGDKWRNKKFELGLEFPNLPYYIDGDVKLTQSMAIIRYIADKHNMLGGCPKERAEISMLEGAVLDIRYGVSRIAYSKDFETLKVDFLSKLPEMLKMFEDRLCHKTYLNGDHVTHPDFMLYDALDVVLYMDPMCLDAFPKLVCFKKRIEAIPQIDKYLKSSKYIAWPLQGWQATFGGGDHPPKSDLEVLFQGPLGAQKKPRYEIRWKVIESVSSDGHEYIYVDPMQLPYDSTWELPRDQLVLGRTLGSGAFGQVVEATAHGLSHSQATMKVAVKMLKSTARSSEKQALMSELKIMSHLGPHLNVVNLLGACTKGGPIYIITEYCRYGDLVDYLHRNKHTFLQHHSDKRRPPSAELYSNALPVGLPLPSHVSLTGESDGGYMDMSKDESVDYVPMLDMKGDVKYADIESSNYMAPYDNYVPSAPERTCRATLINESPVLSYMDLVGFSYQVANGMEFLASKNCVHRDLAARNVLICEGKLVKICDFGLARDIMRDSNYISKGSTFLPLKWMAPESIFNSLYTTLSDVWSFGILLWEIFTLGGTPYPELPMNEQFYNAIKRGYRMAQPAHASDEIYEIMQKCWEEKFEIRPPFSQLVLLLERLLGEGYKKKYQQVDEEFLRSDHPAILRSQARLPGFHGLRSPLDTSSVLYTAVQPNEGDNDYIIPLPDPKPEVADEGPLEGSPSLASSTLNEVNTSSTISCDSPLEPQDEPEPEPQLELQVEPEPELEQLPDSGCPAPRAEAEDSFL
T1 sequence (P16234 550-1089 T674I): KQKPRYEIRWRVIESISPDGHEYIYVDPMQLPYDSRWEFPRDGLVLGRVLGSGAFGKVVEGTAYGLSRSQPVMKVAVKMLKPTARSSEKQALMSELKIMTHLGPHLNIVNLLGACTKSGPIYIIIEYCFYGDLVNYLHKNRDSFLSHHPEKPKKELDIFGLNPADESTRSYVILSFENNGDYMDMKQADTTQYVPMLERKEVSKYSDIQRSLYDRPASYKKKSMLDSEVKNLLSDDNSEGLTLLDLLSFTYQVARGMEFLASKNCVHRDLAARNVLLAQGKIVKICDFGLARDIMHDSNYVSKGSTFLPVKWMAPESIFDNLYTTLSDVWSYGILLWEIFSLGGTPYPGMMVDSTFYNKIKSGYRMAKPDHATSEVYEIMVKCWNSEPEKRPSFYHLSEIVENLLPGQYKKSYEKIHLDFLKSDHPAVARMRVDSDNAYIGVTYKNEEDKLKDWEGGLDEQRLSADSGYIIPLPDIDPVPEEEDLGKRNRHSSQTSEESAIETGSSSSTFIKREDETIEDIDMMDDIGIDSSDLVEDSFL

| SMILES | IC50 [1] [nM] | IC50 [2] [nM] |
| --- | --- | --- |
| C[C@H](Nc1cnc2[nH]cc(-c3cnn(C)c3)c2n1)c1cccc(NC(=O)[C@@H]2C[C@H]2C(F)(F)F)c1 [Compound 589, (1R,2R)-N-(3-((S)-1-((7-(1-methyl-1H-pyrazol-4-yl)-5H-pyrrolo[2,3-b]pyrazin-2-yl)amino)ethyl)phenyl)-2-(trifluoromethyl)cyclopropane-1-carboxamide] | ≥ 1000 | 300 to 1000 |
| CCn1cc2ncc(N[C@@H](C)c3cccc(NC(=O)c4ccc(C)o4)c3)nc2n1 [Compound 369, (S)-N-(3-(1-((2-ethyl-2H-pyrazolo[3,4-b]pyrazin-6-yl)amino)ethyl)phenyl)-5-methylfuran-2-carboxamide] | ≥ 1000 | ≥ 1000 |
| CCn1cc2ncc(N[C@@H](C)c3cccc(NC(=O)c4ccc(CN5CC6(COC6)C5)c(F)c4)c3)nc2n1 [Compound 468, (S)-4-((2-oxa-6-azaspiro[3.3]heptan-6-yl)methyl)-N-(3-(1-((2-ethyl-2H-pyrazolo[3,4-b]pyrazin-6-yl)amino)ethyl)phenyl)-3-fluorobenzamide] | 300 to 1000 | ≥ 1000 |
| Cc1cncc(C(=O)Nc2cccc([C@H](C)Nc3cnc4cc(C(F)(F)F)ccc4n3)c2)c1 [Compound 35, (S)-5-methyl-N-(3-(1-((6-(trifluoromethyl)quinoxalin-2-yl)amino)ethyl)phenyl) nicotinamide] | < 300 | < 300 |
| CCn1cc2ncc(N[C@@H](C)c3cccc(NC(=O)c4cnc(N(C)C)c(C)c4)c3)nc2n1 [Compound 348, (S)-6-(dimethylamino)-N-(3-(1-((2-ethyl-2H-pyrazolo[3,4-b]pyrazin-6-yl)amino)ethyl)phenyl)-5-methylnicotinamide] | < 300 | < 300 |
| CCn1cc2ncc(N[C@@H](C)c3cc(NC(=O)Cc4cccc(C(F)(F)F)c4)ccc3F)nc2n1 [Compound 636, (S)-N-(3-(1-((2-ethyl-2H-pyrazolo[3,4-b]pyrazin-6-yl)amino)ethyl)-4-fluorophenyl)-2-(3-(trifluoromethyl)phenyl) acetamide] | < 300 | < 300 |
| Cc1cncc(C(=O)Nc2cccc([C@H](C)Nc3cnc4cccc(Cl)c4n3)c2)c1 [Compound 37, (S)-N-(3-(1-((8-chloroquinoxalin-2-yl)amino)ethyl)phenyl)-5-methylnicotinamide] | < 300 | < 300 |
| C[C@H](Nc1cnc2cn[nH]c2n1)c1cccc(NC(=O)c2cncc(C(C)(C)O)c2)c1 [Compound 95, (S)-N-(3-(1-((1H-pyrazolo[3,4-6]pyrazin-6-yl)amino)ethyl)phenyl)-5-(2-hydroxypropan-2-yl)nicotinamide] | < 300 | < 300 |
| CCn1cc2ncc(N[C@@H](C)c3cc(NC(=O)c4cnn(C(C)C)c4)ccc3F)nc2n1 [Compound 313, (S)-N-(3-(1-((2-ethyl-2H-pyrazolo[3,4-b]pyrazin-6-yl)amino)ethyl)-4-fluorophenyl)-1-isopropyl-1H-pyrazole-4-carboxamide] | < 300 | < 300 |
| Cc1cncc(C(=O)Nc2cccc([C@H](C)Nc3cnc4[nH]ccc4n3)c2)c1 [Compound 552, (S)-N-(3-(1-((5H-pyrrolo[2,3-b]pyrazin-2-yl)amino)ethyl)phenyl)-5-methylnicotinamide] | < 300 | < 300 |
| CCn1cc2ncc(N[C@@H](C)c3cc(NC(=O)c4ccc(C(F)(F)F)nc4)cc(F)c3F)nc2n1 [Compound 491, (S)-N-(3-(1-((2-ethyl-2H-pyrazolo[3,4-b]pyrazin-6-yl)amino)ethyl)-4,5-difluorophenyl)-6-(trifluoromethyl)nicotinamide] | 300 to 1000 | 300 to 1000 |
| CCn1cc2ncc(N[C@@H](C)c3cccc(NC(=O)c4ccc(CN5C[C@@H](C)O[C@@H](C)C5)c(C)c4)c3)nc2n1 [Compound 478, 4-(((2S,6R)-2,6-dimethylmorpholino)methyl)-N-(3-((S)-1-((2-ethyl-2H-pyrazolo[3,4-b]pyrazin-6-yl)amino)ethyl)phenyl)-3-methylbenzamide] | < 300 | 300 to 1000 |
| CCn1cc2ncc(N[C@@H](C)c3cc(NC(=O)Cc4ccc(C)nc4)ccc3F)nc2n1 [Compound 651, (S)-N-(3-(1-((2-ethyl-2H-pyrazolo[3,4-b]pyrazin-6-yl)amino)ethyl)-4-fluorophenyl)-2-(6-methylpyridin-3-yl) acetamide] | < 300 | ≥ 1000 |
| COCCn1ccc2ncc(N[C@@H](C)c3cccc(NC(=O)c4cncc(C)c4)c3)nc21 [Compound 84, (S)-N-(3-(1-((5-(2-methoxyethyl)-5H-pyrrolo [2,3-b]pyrazin-3-yl)amino)ethyl)phenyl)-5-methylnicotinamide] | < 300 | 300 to 1000 |

The remaining lines, values ahead:

| IC50 [1] [nM] | IC50 [2] [nM] | SMILES |
| --- | --- | --- |
| < 300 | < 300 | CCc1ccc(C(=O)Nc2cccc([C@H](C)Nc3cnc4cnn(C)c4n3)c2)cc1C [Compound 251, (S)-4-ethyl-3-methyl-N-(3-(1-((1-methyl-1H-pyrazolo[3,4-b]pyrazin-6-yl)amino)ethyl)phenyl)benzamide] |
| < 300 | < 300 | CC(C)c1cc(C(=O)Nc2cccc([C@H](C)Nc3cnc4[nH]ncc4n3)c2)no1 [Compound 530, (S)-N-(3-(1-((1H-pyrazolo[3,4-b]pyrazin-5-yl)amino)ethyl)phenyl)-5-isopropylisoxazole-3-carboxamide] |
| < 300 | < 300 | Cc1cncc(C(=O)Nc2cccc([C@H](C)Nc3cnc4[nH]nc(-c5cnn(C)c5)c4n3)c2)c1 [Compound 551, (S)-5-methyl-N-(3-(1-((3-(1-methyl-1H-pyrazol-4-yl)-1H-pyrazolo[3,4-b]pyrazin-5-yl)amino)ethyl)phenyl) nicotinamide] |
| < 300 | < 300 | Cc1cc2ncc(N[C@@H](C)c3cc(NC(=O)c4ccc(C(F)(F)F)nc4)ccc3F)nc2o1 [Compound 614, (S)-N-(4-fluoro-3-(1-((6-methylfuro[2,3-b]pyrazin-3-yl)amino)ethyl)phenyl)-6-(trifluoromethyl)nicotinamide] |
| < 300 | < 300 | CCn1cc2ncc(N[C@@H](C)c3cc(NC(=O)Cc4ccccc4F)ccc3C)nc2n1 [Compound 700, (S)-N-(3-(1-((2-ethyl-2H-pyrazolo[3,4-b]pyrazin-6-yl)amino)ethyl)-4-methylphenyl)-2-(2-fluorophenyl)acetamide] |
| < 300 | < 300 | C[C@H](Nc1cnc2cnn(C)c2n1)c1cccc(NC(=O)c2ccc3c(c2)SCCN3)c1 [Compound 79, (S)-N-(3-(1-((1-methyl-1H-pyrazolo[3,4-d]pyrazin-6-yl)amino)ethyl)phenyl)-3,4-dihydro-2H-benzo[b] [1,4]thiazine-7-carboxamide] |
| < 300 | < 300 | CCn1cc2ncc(N[C@@H](C)c3cccc(NC(=O)c4cc(F)c(CN5CC6(COC6)C5)c(Cl)c4)c3)nc2n1 [Compound 490, (S)-4-((2-oxa-6-azaspiro[3.3]heptan-6-yl)methyl)-3-chloro-N-(3-(1-((2-ethyl-2H-pyrazolo[3,4-b]pyrazin-6-yl)amino)ethyl)phenyl)-5-fluorobenzamide] |
| < 300 | < 300 | CCn1cc2ncc(N[C@@H](C)c3cccc(NC(=O)c4ccc(CN5CCOCC5)c(C(F)(F)F)c4)c3)nc2n1 [Compound 424, (S)-N-(3-(1-((2-ethyl-2H-pyrazolo[3,4-b]pyrazin-6-yl)amino)ethyl)phenyl)-4-(morpholinomethyl)-3-(trifluoromethyl)benzamide] |
